# Source: patent US8178688B2, “Benzamidine derivatives, process for the preparation thereof and pharmaceutical composition comprising the same” (Dong Wha Pharmaceutical Co., Ltd., priority 2004, dated 2012)
# System: osteoclast differentiation
# Assay: Inhibitory effects on osteoclast differentiation (co-culture of bone marrow cells with osteoblast, TRAP staining)
# Type: cell-based, mice
# Conditions: Mus musculus, Osteoclast, 168 h, read-out: % inhibitory activity on osteoclastogenesis
# Description: The effect of benzamidine derivatives of the present invention on osteoclast proliferation and differentiation process was evaluated via co-culture with osteoblast.
# Tibia and Femora were aseptically ectomized from male ddY mice of 6-8 weeks to harvest bone marrow cells by using a syringe (21G, Korea Green Cross).
# The bone marrow cells were suspended in 5 mL α-MEM medium (Gibco BRL Co.) containing sodium bicarbonate (2.0 g/L), streptomycin (100 mg/L) and penicillin ([…]). The harvested cells were centrifuged at 600×g for 5 mins to collect the whole quantity. To remove the red blood cells within bone marrow cells, 3 mL of Tris HCl (0.83% NH4Cl, pH7.5) was added and well mixed. After centrifuging above cells, the numbers of bone marrow cells were counted and then, the bone marrow cells were immediately used for co-culture system with osteoblast.
# The calvaria were aseptically ectomized from neonate ICR mice of 1˜2 days, washed with PBS solution and incubated with a mixture of enzyme solution (0.2% collagenase and 0.1% dispase) at 37° C. gentle shaker. This procedure was sequentially repeated (10, 10, 10, 20, 20 and 20 mins), and then the calvaria cells having the characteristics of osteoblast mostly released from III-VI digestion groups were collected and washed with the medium (serum-free α-MEM). The washed cells were cultivated in α-MEM medium containing 10% FBS for 2˜3 days. After subculturing, these cells were used for this experiment, and diluted to reach the concentration of 1×10^6 cell/mL for storage at −70° C.
# Benzamidine derivatives of the present invention were dissolved in a sterile distilled water or ethanol to make desired concentrations following dilution. The final volume of specimen added to the medium was determined at the ratio of 1:1000.
# Bone marrow cells prepared, in the above and osteoblast from calvaria were co-cultured for osteoclast differentiation. Both bone marrow cells (25,000 cells/cm^2) and osteoblast (10,000 cells/cm^2) were plated on a 96 well plate in α-MEM medium containing FBS with specimen, and then cultured with test materials for 7 days. Differentiation factors, such as dexamethasone (10^−7M) and vitamin D3 (10^−8M), were also continuously added to the medium from the first day of cultivation. The medium was changed with fresh media containing a mixture of specimens and differentiation factors every 2˜3 day.
# TRAP was used as a marker to measure osteoclast in consideration of its characteristics showing a positive reaction to TRAP staining solution. TRAP staining solution was prepared in a manner that 5 mg of naphtol AS-MS phosphate (sigma N-4875), a substrate and 25 mg of coloring agent (Fast Red Violet LB salt) were dissolved in N,N-dimethylformamide (about 0.5 mL), 0.1N NaHCO3 buffer solution (50 mL) containing 50 mM tartaric acid was added, and the reaction mixture was stored at refrigerator prior to use.
# After culturing the cells for 7 days, the medium was removed from the wells, the cells were once washed with PBS solution and fixed to PBS containing 10% formalin for 2˜5 mins. The cells were fixed again in a mixed solution of ethanol and acetone (1/1) for about 1 min, and dried off. The cells were further treated by TRAP staining solution for 15 mins and washed with PBS. The experimental results were measured by counting the number of osteoclasts with 3 or more nuclei showing TRAP-positive reaction under a microscopic examination. Each of tests was confirmed over three times for gaining more reliable data.
# As shown in the following table 7, the inhibitory effect of each experimental group on the differentiation of osteoclast versus controls was expressed by inhibitory percentage value.
row,Compound,inhibition at 1 µM [%]
1,"CCCCCc1nc(-c2ccc(OCCCCCOc3ccc(C(=N)NO)cc3)cc2)c(C(C)C)s1 [Example 28, N-hydroxy-4-(5-[4-(5-isopropyl-2-pentyl-1,3-thiazol-4-yl)phenoxy]pentoxy)-benzamidine]",29.6
2,"CCCCCc1nc(-c2ccc(OCCCCCOc3ccc(C(=N)NO)cc3)cc2)c(CCCC)s1 [Example 36, N-hydroxy-4-(5-[4-(5-butyl-2-pentyl-1,3-thiazol-4-yl)phenoxy]pentoxy)-benzamidine]",46.4
3,"CCCN1CCC(c2nc(-c3ccc(OCCCCCOc4ccc(C(=N)NO)cc4)cc3)c(CC3CCCC3)s2)CC1 [Example 68, N-hydroxy-4-(5-[4-(5-cyclopentylmethyl-2-(1-propyl-piperidin-4-yl)-1,3-thiazol-4-yl)phenoxy]pentoxy)-benzamidine]",83

# Same assay, conditions: Mus musculus, Osteoclast, 168 h; 1 m; co-culture of bone marrow cells and osteoblast, 7 days, TRAP-positive osteoclasts versus controls; read-out: % inhibitory activity on osteoclastogenesis
row,Compound,inhibition at 1 µM [%]
1,"CCCCc1sc(NC(=N)N)nc1-c1ccc(OCCCCCOc2ccc(C(=N)NO)cc2)cc1 [Example 64, N-hydroxy-4-(5-[4-(5-butyl-2-guanidino-1,3-thiazol-4-yl)phenoxy]pentoxy)-benzamidine]",43.7
2,"N=C(NO)c1ccc(OCCCCCOc2ccc(-c3nc(N)sc3Cc3ccccc3)cc2)cc1 [Example 65, N-hydroxy-4-(5-[4-(2-amino-5-benzyl-1,3-thiazol-4-yl)phenoxy]pentoxy)-benzamidine]",46
3,"N=C(N)Nc1nc(-c2ccc(OCCCCCOc3ccc(C(=N)NO)cc3)cc2)c(Cc2ccccc2)s1 [Example 66, N-hydroxy-4-(5-[4-(5-benzyl-2-guanidino-1,3-thiazol-4-yl)phenoxy]pentoxy)-benzamidine]",38.5
4,"Cc1sc(NC(=O)C(C)C)nc1-c1ccc(OCCCCCOc2ccc(C(=N)NO)cc2)cc1 [Example 69, N-hydroxy-4-(5-[4-(2-(isobutyryl)amino-5-methyl-1,3-thiazol-4-yl)phenoxy]pentoxy)-benzamidine]",99.6

# Same assay, conditions: Mus musculus, Osteoclast, 168 h; 1 μm; co-culture of bone marrow cells and osteoblast, 7 days, TRAP-positive osteoclasts versus controls; read-out: % inhibitory activity on osteoclastogenesis
row,Compound,inhibition at 1 µM [%]
1,"Cc1sc(C(C)C)nc1-c1ccc(OCCCCCOc2ccc(C(=N)NO)cc2)cc1 [Example 1, N-hydroxy-4-(5-[4-(2-isopropyl-5-methyl-1,3-thiazol-4-yl)phenoxy]pentoxy)-benzamidine]",87
2,"Cc1sc(C(C)C)nc1-c1ccc(OCCCCCOc2ccc(C(=N)N)cc2)cc1 [Example 2, 4-(5-[4-(2-isopropyl-5-methyl-1,3-thiazol-4-yl)phenoxy]pentoxy)-benzamidine]",78.4
3,"CCc1nc(-c2ccc(OCCCCCOc3ccc(C(=N)NO)cc3)cc2)cs1 [Example 4, N-hydroxy-4-(5-[4-(2-ethyl-1,3-thiazol-4-yl)phenoxy]pentoxy)-benzamidine]",81.1
4,"CCc1sc(C)nc1-c1ccc(OCCCCCOc2ccc(C(=N)NO)cc2)cc1 [Example 17, N-hydroxy-4-(5-[4-(5-ethyl-2-methyl-1,3-thiazol-4-yl)phenoxy]pentoxy)-benzamidine]",59.1
5,"CCc1sc(C(C)C)nc1-c1ccc(OCCCCCOc2ccc(C(=N)NO)cc2)cc1 [Example 19, N-hydroxy-4-(5-[4-(5-ethyl-2-isopropyl-1,3-thiazol-4-yl)phenoxy]pentoxy)-benzamidine]",42.6
6,"CCc1nc(-c2ccc(OCCCCCOc3ccc(C(=N)NO)cc3)cc2)c(C(C)C)s1 [Example 24, N-hydroxy-4-(5-[4-(2-ethyl-5-isopropyl-1,3-thiazol-4-yl)phenoxy]pentoxy)-benzamidine]",57.8
7,"CC(C)c1nc(-c2ccc(OCCCCCOc3ccc(C(=N)NO)cc3)cc2)c(C(C)C)s1 [Example 25, N-hydroxy-4-(5-[4-(2,5-diisopropyl-1,3-thiazol-4-yl)phenoxy]pentoxy)-benzamidine]",26.5
8,"CC(C)c1sc(-c2ccccc2)nc1-c1ccc(OCCCCCOc2ccc(C(=N)NO)cc2)cc1 [Example 26, N-hydroxy-4-(5-[4-(5-isopropyl-2-phenyl-1,3-thiazol-4-yl)phenoxy]pentoxy)-benzamidine]",42.9
9,"CC(C)c1sc(-c2cccnc2)nc1-c1ccc(OCCCCCOc2ccc(C(=N)NO)cc2)cc1 [Example 27, N-hydroxy-4-(5-[4-(5-isopropyl-2-pyridin-3-yl-1,3-thiazol-4-yl)phenoxy]pentoxy)-benzamidine]",56.5
10,"CCCc1sc(C)nc1-c1ccc(OCCCCCOc2ccc(C(=N)NO)cc2)cc1 [Example 29, N-hydroxy-4-(5-[4-(2-methyl-5-propyl-1,3-thiazol-4-yl)phenoxy]pentoxy)-benzamidine]",96.3
11,"CCCCc1sc(-c2ccccc2)nc1-c1ccc(OCCCCCOc2ccc(C(=N)NO)cc2)cc1 [Example 33, N-hydroxy-4-(5-[4-(5-butyl-2-phenyl-1,3-thiazol-4-yl)phenoxy]pentoxy)-benzamidine]",49.5
12,"Cc1nc(-c2ccc(OCCCCCOc3ccc(C(=N)NO)cc3)cc2)c(Cc2ccccc2)s1 [Example 38, N-hydroxy-4-(5-[4-(5-benzyl-2-methyl-1,3-thiazol-4-yl)phenoxy]pentoxy)-benzamidine]",56.8
13,"Cc1nc(-c2ccc(OCCCCCOc3ccc(C(=N)NO)cc3)cc2)c(CCCl)s1 [Example 42, N-hydroxy-4-(5-[4-(5-(2-chloro-ethyl)-2-methyl-1,3-thiazol-4-yl)phenoxy]pentoxy)-benzamidine]",90.9
14,"Cc1nc(-c2ccc(OCCCCCOc3ccc(C(=N)NO)cc3)cc2)c(CC(C)C)s1 [Example 44, N-hydroxy-4-(5-[4-(5-isobutyl-2-methyl-1,3-thiazol-4-yl)phenoxy]pentoxy)-benzamidine]",96.6
15,"Cc1nc(-c2ccc(OCCCCCOc3ccc(C(=N)N)cc3)cc2)cs1 [Example 52, 4-(5-[4-(2-methyl-1,3-thiazol-4-yl)phenoxy]pentoxy)-benzamidine]",0
16,"CC(C)c1nc(-c2ccc(OCCCCCOc3ccc(C(=N)N)cc3)cc2)cs1 [Example 53, 4-(5-[4-(2-isopropyl-1,3-thiazol-4-yl)phenoxy]pentoxy)-benzamidine]",0
17,"Cc1nc(-c2ccc(OCCCCCOc3ccc(C(=N)N)cc3)cc2)c(C)s1 [Example 54, 4-(5-[4-(2,5-dimethyl-1,3-thiazol-4-yl)phenoxy]pentoxy)-benzamidine]",94.2
18,"CCc1sc(C(C)C)nc1-c1ccc(OCCCCCOc2ccc(C(=N)N)cc2)cc1 [Example 55, 4-(5-[4-(5-ethyl-2-isopropyl-1,3-thiazol-4-yl)phenoxy]pentoxy)-benzamidine]",67.8
19,"CCc1sc(-c2ccccc2)nc1-c1ccc(OCCCCCOc2ccc(C(=N)N)cc2)cc1 [Example 56, 4-(5-[4-(5-ethyl-2-phenyl-1,3-thiazol-4-yl)phenoxy]pentoxy)-benzamidine]",58.7
20,"CCc1sc(N)nc1-c1ccc(OCCCCCOc2ccc(C(=N)NO)cc2)cc1 [Example 60, N-hydroxy-4-(5-[4-(2-amino-5-ethyl-1,3-thiazol-4-yl)phenoxy]pentoxy)-benzamidine]",28.2
21,"CC(C)c1sc(N)nc1-c1ccc(OCCCCCOc2ccc(C(=N)NO)cc2)cc1 [Example 61, N-hydroxy-4-(5-[4-(2-amino-5-isopropyl-1,3-thiazol-4-yl)phenoxy]pentoxy)-benzamidine]",0
22,"CC(C)c1sc(NC(=N)N)nc1-c1ccc(OCCCCCOc2ccc(C(=N)NO)cc2)cc1 [Example 62, N-hydroxy-4-(5-[4-(2-guanidino-5-isopropyl-1,3-thiazol-4-yl)phenoxy]pentoxy)-benzamidine]",19.1
